Paper PMC9736855, “Discovery of 3-Amino-1H-pyrazole-Based Kinase Inhibitors to Illuminate the Understudied PCTAIRE Family” (International Journal of Molecular Sciences, 2022)
“Also recorded” adds a separate entry of the source.

Key:
[1] = molecular target: T1, CAMK2B (Homo sapiens, UniProt Q13554); assay: DSF; type: binding
T1 construct: purchased in-house DSF panel (SGC Frankfurt)
Description: (§2) Recombinant protein kinase domains with a concentration of 2 μM were mixed with a 10 μM compound solution in DMSO, 20 mM HEPES, pH 7.5, and 500 mM NaCl. SYPRO Orange (5000×, Invitrogen) was added as a fluorescence probe (1 µl per mL). Subsequently, temperature-dependent protein unfolding profiles were measured, using the QuantStudio™ 5 realtime PCR machine (Thermo Fisher, Waltham, MA, USA). […] The temperature was raised with a step rate of 3 °C per minute. Data points were analyzed with the internal software (Thermal Shift SoftwareTM Version 1.4, Thermo Fisher) using the Boltzmann equation to determine the inflection point of the transition curve [56]. Differences in melting temperature are given as ΔTm values in °C. Measurements were performed in duplicates.

[2] = molecular target: T2, CDK11A/Cyclin K (Homo sapiens, UniProt Q9UQ88); assay: NanoBRET; type: cell-based; conditions: read-out: NanoBRET EC50 ± SEM CDK11A/Cyclin K
T2 sequence (Q9UQ88 1-783): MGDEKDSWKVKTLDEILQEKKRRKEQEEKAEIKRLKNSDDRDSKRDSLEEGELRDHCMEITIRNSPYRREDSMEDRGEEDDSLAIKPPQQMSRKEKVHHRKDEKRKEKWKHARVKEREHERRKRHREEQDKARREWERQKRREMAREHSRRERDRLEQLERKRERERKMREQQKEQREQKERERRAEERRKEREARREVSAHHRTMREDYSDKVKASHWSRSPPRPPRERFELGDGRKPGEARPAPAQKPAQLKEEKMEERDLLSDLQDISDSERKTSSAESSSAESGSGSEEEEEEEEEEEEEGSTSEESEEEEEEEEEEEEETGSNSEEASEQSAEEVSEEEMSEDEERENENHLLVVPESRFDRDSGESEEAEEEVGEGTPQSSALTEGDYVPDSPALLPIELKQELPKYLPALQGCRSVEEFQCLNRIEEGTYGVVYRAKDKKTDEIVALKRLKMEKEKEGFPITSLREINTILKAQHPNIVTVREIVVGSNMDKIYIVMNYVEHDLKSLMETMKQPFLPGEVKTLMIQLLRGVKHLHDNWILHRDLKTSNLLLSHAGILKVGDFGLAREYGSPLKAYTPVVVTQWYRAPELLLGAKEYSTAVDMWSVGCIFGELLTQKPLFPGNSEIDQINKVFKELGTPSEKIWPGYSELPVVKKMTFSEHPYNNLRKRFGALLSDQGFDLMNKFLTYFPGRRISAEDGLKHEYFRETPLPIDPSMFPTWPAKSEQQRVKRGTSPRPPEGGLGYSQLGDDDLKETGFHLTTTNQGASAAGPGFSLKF
Description: (§1) The assay was performed as described previously. In brief: Full-length kinases were obtained as plasmids cloned in frame with a terminal NanoLuc-fusion (Promega, Madison, WI, USA), as specified in table (Table S6). Plasmids were transfected into HEK293T cells using FuGENE HD (Promega, E2312) and proteins were allowed to express for 20h. Serially diluted inhibitor and NanoBRET Kinase Tracer (Promega) at a concentration determined previously as the KD,app (Table S5) were pipetted into white 384-well plates (Greiner 781207) using an Echo acoustic dispenser (Labcyte, San Jose, CA, USA). The corresponding protein-transfected cells were added and reseeded at a density of 2.5 × 10^5 cells/mL after trypsinization and resuspending in Opti-MEM without phenol red (Life Technologies, Carlsbad, CA, USA). The system was allowed to equilibrate for 2 h at 37 °C/5% CO2 prior to BRET measurements. To measure BRET, NanoBRET NanoGlo Substrate + Extracellular NanoLuc Inhibitor (Promega, N2540) was added as per the manufacturer’s protocol, and filtered luminescence was measured on a PHERAstar plate reader (BMG Labtech, Ortenberg, Germany) equipped with a luminescence filter pair (450 nm BP filter (donor) and 610 nm LP filter (acceptor)). Competitive displacement data were then graphed using GraphPad Prism 9 software using a normalized 3-parameter curve fit with the following equation: Y = 100/(1 + 10^(X–LogEC50)).

[3] = molecular target: CDK11B/Cyclin K (Homo sapiens, UniProt P21127); assay: NanoBRET; type: cell-based; conditions: read-out: NanoBRET EC50 ± SEM CDK11B/Cyclin K
CDK11B/Cyclin K, sequence (P21127 whole entry): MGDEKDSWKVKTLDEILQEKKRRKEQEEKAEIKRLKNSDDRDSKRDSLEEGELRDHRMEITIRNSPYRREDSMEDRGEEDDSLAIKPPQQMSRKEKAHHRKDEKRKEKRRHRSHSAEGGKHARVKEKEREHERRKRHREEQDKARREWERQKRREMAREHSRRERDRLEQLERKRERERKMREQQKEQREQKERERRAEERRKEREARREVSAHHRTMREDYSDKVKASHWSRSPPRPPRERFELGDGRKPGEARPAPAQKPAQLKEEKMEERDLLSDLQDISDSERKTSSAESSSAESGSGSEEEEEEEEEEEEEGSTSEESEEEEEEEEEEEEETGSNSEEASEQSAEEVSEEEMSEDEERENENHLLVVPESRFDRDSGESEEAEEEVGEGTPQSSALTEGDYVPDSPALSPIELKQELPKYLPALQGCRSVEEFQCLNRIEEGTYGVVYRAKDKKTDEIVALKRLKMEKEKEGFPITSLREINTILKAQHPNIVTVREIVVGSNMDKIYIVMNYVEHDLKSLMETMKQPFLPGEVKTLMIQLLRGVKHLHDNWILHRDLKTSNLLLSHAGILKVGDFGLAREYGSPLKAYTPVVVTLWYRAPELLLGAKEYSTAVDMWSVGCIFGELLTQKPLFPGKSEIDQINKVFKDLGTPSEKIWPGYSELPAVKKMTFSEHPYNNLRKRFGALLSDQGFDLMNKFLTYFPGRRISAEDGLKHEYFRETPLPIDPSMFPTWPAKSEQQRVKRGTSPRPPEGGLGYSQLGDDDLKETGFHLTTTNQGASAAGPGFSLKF
Description: as §1

[4] = molecular target: CDK18/Cyclin Y (Homo sapiens, UniProt Q07002); assay: NanoBRET; type: cell-based; conditions: read-out: NanoBRET EC50 ± SEM CDK18/Cyclin Y
CDK18/Cyclin Y, sequence (Q07002 whole entry): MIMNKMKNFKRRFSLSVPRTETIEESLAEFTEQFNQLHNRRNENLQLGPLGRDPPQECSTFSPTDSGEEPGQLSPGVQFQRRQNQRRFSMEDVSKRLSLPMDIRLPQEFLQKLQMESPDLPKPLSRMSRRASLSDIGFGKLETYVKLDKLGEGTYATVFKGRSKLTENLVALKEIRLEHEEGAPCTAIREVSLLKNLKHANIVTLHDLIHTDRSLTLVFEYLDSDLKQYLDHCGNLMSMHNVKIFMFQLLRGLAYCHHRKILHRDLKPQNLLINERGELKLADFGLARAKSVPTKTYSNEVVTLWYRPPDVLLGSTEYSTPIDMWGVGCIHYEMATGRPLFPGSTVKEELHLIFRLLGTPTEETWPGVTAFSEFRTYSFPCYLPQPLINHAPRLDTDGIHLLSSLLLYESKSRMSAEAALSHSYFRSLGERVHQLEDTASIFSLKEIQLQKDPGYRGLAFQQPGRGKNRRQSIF
CDK18/Cyclin Y, sequence (Q8ND76 2-341 partner limits assumed): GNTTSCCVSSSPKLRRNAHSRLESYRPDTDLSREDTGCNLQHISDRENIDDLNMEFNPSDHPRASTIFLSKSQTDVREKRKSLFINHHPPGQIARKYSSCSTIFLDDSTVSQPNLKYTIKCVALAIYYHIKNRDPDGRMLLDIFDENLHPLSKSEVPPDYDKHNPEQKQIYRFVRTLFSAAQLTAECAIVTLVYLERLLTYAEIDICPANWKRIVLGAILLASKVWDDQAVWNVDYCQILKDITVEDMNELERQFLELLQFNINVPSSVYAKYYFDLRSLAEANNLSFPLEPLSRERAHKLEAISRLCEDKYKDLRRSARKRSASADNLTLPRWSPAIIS
Description: as §1

[5] = molecular target: T3, CDK9/Cyclin K (Homo sapiens, UniProt P50750); assay: NanoBRET; type: cell-based; conditions: read-out: NanoBRET EC50 ± SEM CDK9/Cyclin K
T3 construct: Full-length kinases were obtained as plasmids cloned in frame with a terminal NanoLuc-fusion; CS1810C93 (CCNK); host or cells: HEK293T
T3 sequence (P50750 whole entry, the tested form may be a part): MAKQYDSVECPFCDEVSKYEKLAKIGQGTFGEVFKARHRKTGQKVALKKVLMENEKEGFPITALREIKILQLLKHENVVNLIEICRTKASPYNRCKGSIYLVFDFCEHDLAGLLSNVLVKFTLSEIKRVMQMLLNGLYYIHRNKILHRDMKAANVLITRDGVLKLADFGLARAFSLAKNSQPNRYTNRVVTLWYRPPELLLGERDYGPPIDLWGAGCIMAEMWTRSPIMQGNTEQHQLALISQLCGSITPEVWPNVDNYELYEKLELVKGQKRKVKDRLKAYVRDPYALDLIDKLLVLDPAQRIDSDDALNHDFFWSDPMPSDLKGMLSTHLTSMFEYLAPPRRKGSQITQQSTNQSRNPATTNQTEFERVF
Description: as §1

[6] = system: HCT116-FUCCI cells; assay: FUCCI cell cycle assay and viability assessment; type: cell-based; conditions: for effect on the cell cycle (FUCCI): 1, 5, 10 µM (milciclib 1, 10 µM); for effect on the cell cycle (FUCCI) / pyknosed nuclei: 24 h; for effect on cell count: 1, 5, 10 µM vs DMSO 0.1 %; for cells compared to the control: after 72 h, vs DMSO 0.1 %; for pyknosed nuclei: average
Description: This technology enables the detection of cell cycle states (G1, G2/M, or S phase) on a single cell level. Additionally, a viability assessment, as described by Tjaden et. al., was performed using Hoechst33342 as a nuclear marker. […] At 10 µM of the same compound, the pyknosed nuclei rate was even higher, on average 45% (Figure 9C). An increase in cells including a pyknosed nucleus indicate apoptotic cell death, due to typical morphological changes like DNA condensation. […] Milciclib is a published CDK2 inhibitor and was used as a reference compound [55]. […] At later time points, the G2/M phase arrest was no longer detectable (Table S7). This can be explained due to the increasing amount of apoptotic cells.
To validate the influence of the compounds on the cell cycle, a florescent ubiquitination-based cell cycle indicator (FUCCI) assay was performed as described previously. In Brief, HCT116-FUCCI cells, stably expressing the FUCCI system, introduced by the Sleeping Beauty transposon system, were seeded at a density of 1250 cells per well in a 384 well plate (Cell culture microplate, PS, f-bottom, µClear®, 781091, Greiner, Frickenhausen, Germany) in culture medium (50 µL per well) and stained additionally with 60 nM Hoechst33342 (Thermo Scientific). Fluorescence and cellular shape were measured before and after compound treatment for 72 h every 12 h using the CQ1 high-content confocal microscope (Yokogawa, Tokyo, Japan). Compounds were added directly to the cells at three different concentrations (1 µM, 5 µM and 10 µM). The following parameters were used for image acquisition: Ex 405 nm/Em 447/60 nm, 500ms, 50%; Ex 561 nm/Em 617/73 nm, 100 ms, 40%; Ex 488/Em 525/50 nm, 50 ms, 40%; Ex 640 nm/Em 685/40, 50 ms, 20 %; bright field, 300ms, 100% transmission, one centered field per well, 7 z stacks per well with 55 µm spacing. Analysis of images was performed using the CellPathfinder software (Yokogawa). The cell count was normalized against the cell count of cells treated with 0.1% DMSO. All normal gated cells were further classified in cells containing healthy, fragmented or pyknosed nuclei. […] Error bars show SEM of biological duplicates. All data can be found in Table S7.

[7] = molecular target: T4, FGFR3 (Homo sapiens, UniProt P22607); assay: DSF; type: binding
T4 construct: purchased in-house DSF panel (SGC Frankfurt)
T4 sequence (P22607 455-768): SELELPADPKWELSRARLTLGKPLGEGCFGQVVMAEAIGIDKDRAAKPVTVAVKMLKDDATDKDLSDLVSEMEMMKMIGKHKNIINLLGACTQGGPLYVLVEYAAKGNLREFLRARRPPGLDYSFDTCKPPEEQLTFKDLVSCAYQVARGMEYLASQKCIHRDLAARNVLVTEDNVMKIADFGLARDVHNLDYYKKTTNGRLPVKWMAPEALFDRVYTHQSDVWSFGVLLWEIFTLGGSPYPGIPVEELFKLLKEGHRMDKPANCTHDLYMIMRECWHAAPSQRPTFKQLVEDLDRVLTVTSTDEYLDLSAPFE
Description: as §2

T1 sequence (Q13554 11-303): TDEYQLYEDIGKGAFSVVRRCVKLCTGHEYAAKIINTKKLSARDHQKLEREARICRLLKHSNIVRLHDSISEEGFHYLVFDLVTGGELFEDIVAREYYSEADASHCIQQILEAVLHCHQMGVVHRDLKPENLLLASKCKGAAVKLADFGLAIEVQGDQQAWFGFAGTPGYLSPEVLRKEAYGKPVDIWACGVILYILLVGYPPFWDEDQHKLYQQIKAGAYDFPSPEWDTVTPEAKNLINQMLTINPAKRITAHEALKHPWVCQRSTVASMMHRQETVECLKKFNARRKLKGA

SMILES | ΔTm CAMK2B [1] | EC50 [2] | EC50 [3] | EC50 [4] | EC50 [5] | effect on the cell cycle (FUCCI) [6] | ΔTm FGFR3 [7] | effect on cell count [6] | cells compared to the control [6] | pyknosed nuclei ([6]; 1 µM) | pyknosed nuclei ([6]; 10 µM)
CC(C)OC(=O)c1cc(Nc2ccnc(NCc3ccc(NC(=O)OC(C)(C)C)cc3)n2)n[nH]1 [42d, isopropyl 3-((2-((4-((tert-butoxycarbonyl)amino)benzyl)amino)pyrimidin-4-yl)amino)-1H-pyrazole-5-carboxylate] | -1.2 °C | 3100 ± 1350 nM | 3860 ± 1050 nM | 128 ± 10.4 nM | 575 ± 157 nM | accumulation of cells in G2/M phases | – | – | – | – | –
COC(=O)c1cc(Nc2ccnc(NCc3ccc(NC(=O)OC(C)(C)C)cc3)n2)[nH]n1 [21i, methyl 5-((2-((4-((tert-butoxycarbonyl)amino)benzyl)amino)pyrimidin-4-yl)amino)-1H-pyrazole-3-carboxylate] | 0.6 °C | 21100 ± 11000 nM | 22900 ± 3740 nM | 1620 ± 287 nM | 7000 ± 2120 nM | accumulation of cells in G2/M phases | 1.2 °C | decreased the cell count | less than 50% | – | –
CC(C)(C)OC(=O)Nc1ccc(CNc2nccc(Nc3cc(C(=O)OC(C)(C)C)[nH]n3)n2)cc1 [43d, tert-butyl 3-((2-((4-((tert-butoxycarbonyl)amino)benzyl)amino)pyrimidin-4-yl)amino)-1H-pyrazole-5-carboxylate] | -0.5 °C | 7980 ± 3740 nM | 7960 ± 3290 nM | 121 nM | 993 nM | G2/M phase cell cycle arrest; also recorded: accumulation of cells in G2/M phases | – | decreased the cell count in a dose-dependent manner | less than 50% | 10% | 45%
COC(=O)c1cc(Nc2ccnc(NCCOCCNC(=O)OC(C)(C)C)n2)[nH]n1 [21d, methyl 5-((2-((2-(2-((tert-butoxycarbonyl)amino)ethoxy)ethyl)amino)pyrimidin-4-yl)amino)-1H-pyrazole-3-carboxylate] | 0.2 °C | – | – | – | – | – | 0.6 °C | – | – | – | –
N#CCc1ccc(Nc2nccc(Nc3cc(C4CC4)[nH]n3)n2)cc1 [compound 1, reference compound] | 4.4 °C | 999 ± 476 nM | 926 ± 649 nM | 25 ± 8.9 nM | 17.4 ± 5.4 nM | no effect on the cell cycle | 9.8 °C | – | – | – | –
